Here are results for 1 compound from patent US20230381163A1, “DABIGATRAN COMPOSITIONS AND METHODS OF TREATING AGE-RELATED MACULAR DEGENERATION” (The United States Government As Represented By The …, priority 2022, published 2023).

“Also recorded” adds a separate entry of the source.

Experiment [1] deals with thrombin (Mus musculus, UniProt P19221). How it is done:
Thrombin activity assay. Thrombin activity was measured according to a methodology described by Ludwicka with modifications (Ohba, T., et al. (1994). Am J Respir Cell Mol Biol 10, 405-412). Thrombin specific peptide Boc-Val-Pro-Arg-7-amido-4-methylcoumarin hydrochloride (Sigma-Aldrich) was reconstituted in molecular grade ice-cold H2O at a concentration of 0.5 mg/ml and used as substrate.
It was test whether dabigatran would alter the course of angiogenesis or repair, by feeding animals with dabigatran chow during the two different phases.

The subject of experiment [2] is C3α breakdown products C3d/C3dg and C3α′1. Nature of the experiment: Complement activation (C3d) in RPE/choroid of CNV mice (western blot). Type of experiment: in vivo, mouse. An excerpt:
(§1) Pathway analysis in CNV. Based on the results in cells, an analysis in animals followed, focusing on VEGF levels in the RPE/choroid, complemented by CTGF analysis and complement activation (C3d production and binding). RPE/choroid samples were collected at the end of the angiogenesis experiment (day 6) and after the final OCT analysis in the repair experiment (day 23) and compared to naive controls (no CNV and no dabigatran treatment).
Unexpectedly, and in contrast to the cell data (FIG. 4), C3d deposition was not reduced by dabigatran.

A further experiment concerns CTGF. Nature of the experiment: CTGF levels in RPE/choroid of CNV mice (western blot). It counts as in vivo, mouse. The following applies: end of repair period (23 days), P<0.01.
From the text: as §1
For orientation: In western blotting, separated proteins are transferred to a membrane and probed.

The target of experiment [3] is thrombin (Homo sapiens, UniProt P00734). Nature of the experiment: Thrombin activity in cell-free system. The conditions noted are these: 10 μM, thrombin 10-500 U/mL.
Description: Thrombin activity in cell-free system. To measure the level of active thrombin in cell-free system, known concentrations of thrombin were prepared in 100 μl of assay buffer (50 mM Tris, 100 mM NaCl, and 0.01% BSA; pH 7.5), subsequently 50 μl of thrombin substrate was added and incubated at 37° C. Fluorescence was measured at 405 nm using the Biotek Synergy HT Microplate Reader and thrombin activity was determined by extrapolation from a thrombin standard curve. Effects of inhibitors were tested by pre-incubating the inhibitors with thrombin, before substrate incorporation.
The subject of the next experiment is VEGF. In words: VEGF levels in RPE/choroid of CNV mice (western blot). It counts as in vivo, mouse.
From the text: as §1

Experiment [4] concerns choroidal neovascularization (CNV) lesions. In words: Laser-induced CNV lesion size by OCT in mice fed dabigatran chow. It counts as in vivo, C57BL/6J mice. An excerpt: Mouse model of choroidal neovascularization (CNV): Choroidal neovascularization. C57BL/6J mice (males and females) from the same colony, to guarantee identical microbiome ([…] al., 2016), were recruited to the study at 3 months of age. Argon laser photocoagulation (532 nm, 100 μm spot size, 0.1 s duration, 100 mW) was used to generate 4 laser spots around the optic nerve of each eye (Rohrer et al., 2009), utilizing bubble formation at the site of the laser burn as the inclusion criteria for successful Bruch's membrane rupture (Nozaki et al., 2006). Dabigatran exposure. Mice were fed standard chow fortified with dabigatran etexilate (10 […] of chow; Boehringer Ingelheim). Mice were either fed dabigatran chow during the angiogenesis period of CNV (starting 2 days prior to CNV induction through day 6 when the tissues were collected), or during the wound healing period (starting after the OCT analysis to ensure CNV growth on day 5 through day 23). Optical Coherence Tomography (OCT) analysis. OCT was used to quantify CNV lesion size on day 5 post laser treatment (Schnabolk, G., et al. (2014). Exp Eye Res 129, 18-23; Schnabolk, G., et al. (2015). Invest Ophthalmol Vis Sci; and Coughlin, B., et al. (2016). Sci Rep 6, 23794), or in weekly intervals to document recovery from fibrosis (Parsons, N., et al. (2019). Mol Immunol 108, 8-12) using an SD-OCT Bioptigen® Spectral Domain Ophthalmic Imaging System (Bioptigen Inc., Durham NC). Mice were anesthetized prior to imaging, eyes kept hydrated with normal saline, and body temperature was carefully monitored to prevent anesthesia-induced cataracts. The methods for imaging and analysis have been described (Schnabolk, G., et al. (2014). Exp Eye Res 129, 18-23; Schnabolk, G., et al. (2015). Invest Ophthalmol Vis Sci; Coughlin, B., et al. (2016). Sci Rep 6, 23794; and Parsons, N., et al. (2019). Mol Immunol 108, 8-). Based on the size of the individual pixels (1.6×1.6 μm), the lesion sizes were calculated.

As to `CCCCCCOC(=O)NC(=N)c1ccc(NCc2nc3cc(C(=O)N(CCC(=O)OCC)c4ccccn4)ccc3n2C)cc1`, the “reduction of thrombin activity in retina/RPE/choroid tissues” value at thrombin [1] (mice on dabigatran chow vs control mice, P=0.04) is recorded as ~10%. Moreover, the “reduction of thrombin activity in serum” value at thrombin [1] (mice on dabigatran chow ˜10 mg/kg per day vs control mice, P=0.003) is given as ~35%. Besides, the “thrombin activity in retina/RPE/choroid tissues” value on thrombin [1] (mice on dabigatran chow, control: 100±3.1) was 91.1±2.6. Also, at thrombin [1] (mice on dabigatran chow, control: 100±7.6), the “thrombin activity in serum” value is listed as 65.4±5.1. Also, the “effect on C3d deposition” value in experiment [2] (CNV animals, repair phase) is recorded as “not reduced”. Besides, the “effect on C3d/C3dg and C3α′1 levels in RPE/choroid” value in experiment [2] (end of repair period (23 days), P<0.05) is on record as “further elevated”. For the same compound, in the experiment with CTGF, the “effect on CTGF levels in RPE/choroid” value is “significantly reduced”. In addition, the “effect on thrombin enzyme activity” value on thrombin [3] was “significantly reduce”. In addition, the “effect on VEGF levels in RPE/choroid” value with VEGF (6-day time point, angiogenesis phase, P=0.9) is “no effect”; in the experiment with VEGF (23-day time point, repair phase, P=0.001), “significantly reduced”. The “reduction of CNV lesion sizes” value in experiment [4] (dabigatran from 2 days prior to CNV induction through angiogenesis phase, OCT day 5, insignificant, P=0.2) is recorded as ~15%. In addition, in experiment [4] (dabigatran from day 5 through repair phase, day 23, P<0.02), the “CNV lesion size at final time point” value is “significantly smaller lesions”. Besides, the “CNV lesion response over time (repair)” value in experiment [4] (repair phase days 5-23, repeated measure ANOVA P<0.0001) is reported as “significant effect of treatment; also recorded: acceleration of repair”.
